Results: article PMC4127532 (Journal of Medicinal Chemistry, 2014)

Test system: A/England/195/2009 (H1N1), M2/N31
Type: cell-based
Settings: 100 μM

## NC1C2CC3CC(C2)CC1C3 (stereo not shown) [Compound 3]
  % block after 30 min: 16 (100 μM; 1) %
